According to patent US9439976B2, “Compositions and methods for using cathepsin E cleavable substrates” (The Methodist Hospital System, priority 2013, dated 2016):
Where a SMILES comes first, the peptide text is derived from it. The star is where a group is joined. X1 = O=C(O)CCC(=O)CN*

Tests used:
[1] = tested on: MPanc96-CTSE cells; assay type: cell-based; settings: human
Description: To determine the number of viable cells after light treatment, a homogeneous colorimetric method, the MTS Cell cytotoxicity assay (Cell Titer 96® Aqueous, Promega, Madison, Wis.) was used. MPanc96-CTSE and MPanc96-FG30 (2×10^4) cells were incubated with various concentrations (0.1, 0.5, 1, and 5 μM) of the 5-ALA prodrug for 30 minutes, followed by treatment with a range of light doses (2.5, 5, 10, and 15 J/cm^2) and incubated overnight at 37° C. and 5% CO2 in 96-well plates. Cells treated only with light or the 5-ALA prodrug were used as negative controls. […] The formation of colored formazan was measured directly in 96-well assay plates at 490 nm absorbance without additional processing. […] After PDT, MPanc96-CTSE cells were washed with PBS buffer, treated with 1 μL YO-PRO-1 and PI stock solution per milliliter medium and incubated on ice for 25 minutes, followed by fluorescence imaging using an inverted epifluorescence microscope. […]
To quantitate cell viability upon photodynamic treatment with the 5-ALA prodrug, PDAC cells were subjected to homogeneous, colorimetric MTS cytotoxicity assay. […] After incubating PDAC cells with the tetrazolium compound, living PDAC cells in culture were quantified directly by measuring the absorbance of the produced formazan product at 490 nm.

[2] = tested on: MPanc96-CTSE cells; assay: Cellular release of 5-ALA, PpIX fluorescence imaging, Cath E-high cells; assay type: cell-based, human; settings: unfixed MPanc96-CTSE cells, 0.5 μM, 37° C.
Description: Mpanc96-CTSE and Mpanc96-FG30 cells (1.2×10^4) were treated in 96-well plates with various concentrations (0.1, 0.5, 1, and 5 μM in 100 μL) of 5-ALA prodrug, incubated for 30 minutes at 37° C., and washed several times with PBS. Fluorescence images of the cells were acquired using an inverted epifluorescence microscope and a TRITC (tetramethyl rhodamine isothiocyanate) filter (λex=557 nm and λem=576 nm). Free 5-ALA and untreated cells were included as controls. The possible light damage done in the absence of photosensitizer was evaluated by irradiating Cath E-positive Mpanc96-CTSE cells with various doses (2.5, 5, 10, 15, and 18 J/cm^2) of light using a diode laser system (652 nm; B&W TEK, Newark, Del.). Phototoxicity of the 5-ALA prodrug was assessed by incubating Mpanc96-CTSE and Mpanc96-FG30 cells in 96-well plates with 0.1 μM 5-ALA prodrug for 30 minutes at 37° C. The cells were washed several times with PBS, the medium was replaced with growth medium, and the cells were treated with a single dose of 10 J/cm2. After PDT, the treated cells and controls were incubated overnight followed by imaging to detect changes in cell morphology.

[3] = tested on: PDAC (p53 conditional deletion/LSL-KrasG12D/Pdx1-Cre); assay: In vivo photodynamic therapy, TUNEL staining of PDAC pancreas in genetically engineered mice; parameters: species or system mouse; settings: mice with PDAC, 1 mg 5-ALA equivalent/kg i.v., 10 J/cm^2 light at 652 nm 1 hour after injection, tissue 24 hours later
Description: All animal studies were performed in compliance with the approved animal protocols and guidelines of Institutional Animal Care and Use Committee of University of Texas MD Anderson Cancer Center. […] Littermates without PDAC served as controls. LSL-KRasG12D, p53-floxed, and Pdx-1-Cre genetic mice were obtained from the Mouse Models for Human Cancer Consortium Repository (Rockville, Md.). Mice were divided into three groups of five transgenic mice with PDAC tumors and three normal littermate controls. Mice were injected with a single dose of saline, free 5-ALA, or the 5-ALA prodrug (1 mg 5-ALA equivalent/kg, 50 μL) intravenously through the tail vein using a 30 gauge needle. Mice were incubated for 60 minutes in a full metabolically active environment and anesthetized by intraperitoneal injection of sodium pentobarbital, at a dose of 50-90 mg/kg diluted to 6 mg/ml. The pancreas was exposed through a left abdominal incision (1 cm, laparotomy) and treated with a 10-J/cm^2 dose of light using a diode laser (652 nm) and incidence fluence rate of 50 mW/cm^2 for 3.5 minutes. After PDT, the pancreas was carefully returned to the peritoneal cavity and the abdomen was closed. One day after light treatment, animals were sacrificed and the pancreases were harvested for subsequent evaluation. […]

For `CC(C)C[C@H](NC(=O)[C@H](CO)NC(=O)[C@H](Cc1ccccc1)NC(=O)CNC(=O)[C@H](C)NC(=O)[C@H](CCC(N)=O)NC(=O)[C@@H](N)CCCNC(=N)N)C(=O)NCC(=O)CCC(=O)O` [5-ALA prodrug, H-Arg-Gln-Ala-Gly-Phe-Ser-Leu-5-ALA-OH] (H-RQAGFSL-X1), the “Cell viability (MTS)” value [1] was “approximately 20%”.

With `NCC(=O)CCC(=O)O` [free 5-ALA, 5-aminolevulinic acid] the “PpIX fluorescence signal in cells (TRITC channel)” value [2] was “comparable” and the “Apoptosis in PDAC tissue sections (TUNEL)” value [3] was “multiple apoptotic cells”.
